According to PMC7665244 (Developmental cell, 2019):

Target: hCFTR (human CFTR) (Homo sapiens, UniProt P13569)
Experiment: inside-out oocyte macropatch current
Type: biochemical
Settings: 1 mM ATP and PKA 127.6 U/mL; potentiator

Chain of hCFTR (human CFTR) (P13569 whole entry): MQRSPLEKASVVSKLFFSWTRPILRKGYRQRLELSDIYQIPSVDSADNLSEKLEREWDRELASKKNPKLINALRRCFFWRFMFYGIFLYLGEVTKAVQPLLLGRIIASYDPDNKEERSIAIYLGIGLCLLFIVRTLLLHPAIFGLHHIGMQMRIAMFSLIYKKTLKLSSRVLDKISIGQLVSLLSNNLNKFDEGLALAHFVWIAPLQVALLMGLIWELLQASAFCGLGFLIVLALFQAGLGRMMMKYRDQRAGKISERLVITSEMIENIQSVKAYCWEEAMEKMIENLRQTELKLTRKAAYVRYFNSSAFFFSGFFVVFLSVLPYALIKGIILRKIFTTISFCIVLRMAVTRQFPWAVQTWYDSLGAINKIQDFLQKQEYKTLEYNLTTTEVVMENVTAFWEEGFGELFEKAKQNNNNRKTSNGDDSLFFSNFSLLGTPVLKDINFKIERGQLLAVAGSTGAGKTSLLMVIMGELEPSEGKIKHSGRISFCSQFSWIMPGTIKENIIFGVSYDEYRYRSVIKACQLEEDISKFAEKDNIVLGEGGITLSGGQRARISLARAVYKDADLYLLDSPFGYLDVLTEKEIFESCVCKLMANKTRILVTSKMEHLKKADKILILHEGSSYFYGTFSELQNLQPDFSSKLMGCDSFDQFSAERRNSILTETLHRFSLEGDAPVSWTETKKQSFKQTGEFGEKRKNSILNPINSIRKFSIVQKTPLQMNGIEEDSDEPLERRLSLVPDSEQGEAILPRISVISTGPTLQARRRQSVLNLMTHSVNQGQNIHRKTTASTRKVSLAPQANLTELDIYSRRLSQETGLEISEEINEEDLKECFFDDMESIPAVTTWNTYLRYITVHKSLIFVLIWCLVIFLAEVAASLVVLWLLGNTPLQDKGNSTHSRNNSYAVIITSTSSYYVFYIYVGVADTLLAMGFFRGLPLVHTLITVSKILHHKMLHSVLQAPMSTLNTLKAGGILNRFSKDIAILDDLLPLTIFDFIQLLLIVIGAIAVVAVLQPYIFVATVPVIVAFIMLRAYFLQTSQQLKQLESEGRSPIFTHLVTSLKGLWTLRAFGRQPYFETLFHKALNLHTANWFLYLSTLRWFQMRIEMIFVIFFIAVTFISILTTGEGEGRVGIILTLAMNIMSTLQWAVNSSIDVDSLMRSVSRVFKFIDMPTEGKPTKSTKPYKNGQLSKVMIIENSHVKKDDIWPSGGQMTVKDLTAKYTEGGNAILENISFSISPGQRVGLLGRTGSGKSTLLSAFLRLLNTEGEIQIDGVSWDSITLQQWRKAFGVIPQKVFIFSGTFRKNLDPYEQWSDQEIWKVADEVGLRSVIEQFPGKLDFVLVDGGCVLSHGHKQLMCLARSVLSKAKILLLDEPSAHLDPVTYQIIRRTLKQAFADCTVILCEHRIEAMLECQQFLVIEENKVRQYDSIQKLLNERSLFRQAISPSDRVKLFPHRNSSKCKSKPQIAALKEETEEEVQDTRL

## CC(C)(C)c1cc(C(C)(C)C)c(NC(=O)c2c[nH]c3ccccc3c2=O)cc1O [VX-770]
  fractional potentiation at 0.2 μM: although hCFTR is potentiated, Lp-CFTR shows no enhancement of function
